Results on 28 compounds are retold here after patent US10273222B2 (CELGENE QUANTICEL RESEARCH, INC., priority 2013, dated 2019).

Holding throughout (format): biochemical
One assay has as its target FBXL10 (Homo sapiens (Human), UniProt Q8NHM5). Put plainly: FBXL10 in vitro enzyme inhibition assay (AlphaScreen). The protocol: Reaction product was determined quantitatively by AlphaScreen detection after the addition of detection reagents anti-H3K36me1 antibody, AlphaScreen® Streptavidin-coated Donor beads, and AlphaScreen® Protein A Acceptor beads in 50 mM HEPES, pH7.3, 10 mM NaCl, 0.005% Brij35, 5 mM EDTA, 2 mg/ml BSA to final 10 μg/ml beads.
Plates were incubated at room temperature for 40 minutes, followed by addition of 3 μl of 50 μg/ml AlphaScreen® Streptavidin-coated Donor beads and AlphaScreen® Protein A Acceptor beads in 50 mM HEPES, pH7.3, 10 mM NaCl, 0.005% Brij35, 5 mM EDTA, 2 mg/ml BSA. Plates were read by EnVisionMultilabel Reader in AlphaScreen mode after a minimum of 2 hour or up to overnight incubation at room temperature. The AlphaScreen signal for each well was used to determine inhibition constant (IC50).
In general terms: In Alpha technology, singlet oxygen from a donor bead excites a nearby acceptor bead.

The target in the next assay is Jarid1B (Homo sapiens (Human), UniProt Q9UGL1). Put plainly: Jarid1B in vitro enzyme inhibition assay (TR-FRET). (Time-resolved FRET reads energy transfer from a long-lived donor to a nearby acceptor.)
Jarid1B, sequence (Q9UGL1 2-751): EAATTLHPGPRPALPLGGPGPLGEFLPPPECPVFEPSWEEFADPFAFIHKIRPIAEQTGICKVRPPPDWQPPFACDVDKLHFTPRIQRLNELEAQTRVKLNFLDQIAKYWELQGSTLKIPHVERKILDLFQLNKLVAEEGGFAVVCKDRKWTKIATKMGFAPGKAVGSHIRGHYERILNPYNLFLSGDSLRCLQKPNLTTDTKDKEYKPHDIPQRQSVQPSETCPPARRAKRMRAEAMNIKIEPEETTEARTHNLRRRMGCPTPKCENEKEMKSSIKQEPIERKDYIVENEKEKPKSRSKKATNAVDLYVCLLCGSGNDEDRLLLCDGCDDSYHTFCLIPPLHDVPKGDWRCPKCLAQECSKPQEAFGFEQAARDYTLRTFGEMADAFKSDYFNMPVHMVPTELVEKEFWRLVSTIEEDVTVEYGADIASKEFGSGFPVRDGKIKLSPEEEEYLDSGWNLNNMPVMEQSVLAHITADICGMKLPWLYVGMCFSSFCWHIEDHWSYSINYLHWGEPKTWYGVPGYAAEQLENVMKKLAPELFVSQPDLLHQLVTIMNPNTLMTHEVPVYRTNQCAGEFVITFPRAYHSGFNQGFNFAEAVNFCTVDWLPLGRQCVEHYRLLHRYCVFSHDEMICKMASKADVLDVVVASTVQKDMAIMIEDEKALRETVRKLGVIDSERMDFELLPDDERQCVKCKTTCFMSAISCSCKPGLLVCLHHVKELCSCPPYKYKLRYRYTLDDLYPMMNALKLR
The next assay has as its target Jarid1A (Homo sapiens (Human), UniProt P29375). Nature of the assay: Jarid1A in vitro enzyme inhibition assay (TR-FRET). From the text:
The enzymatic assay of Jarid1A activity is based upon Time Resolved-Fluorescence Resonance Energy Transfer (TR-FRET) detection.

In a further assay the target is JMJD2C (Homo sapiens (Human), UniProt Q9H3R0). Put plainly: JMJD2C in vitro enzyme inhibition assay (TR-FRET).
JMJD2C, sequence (Q9H3R0 2-372): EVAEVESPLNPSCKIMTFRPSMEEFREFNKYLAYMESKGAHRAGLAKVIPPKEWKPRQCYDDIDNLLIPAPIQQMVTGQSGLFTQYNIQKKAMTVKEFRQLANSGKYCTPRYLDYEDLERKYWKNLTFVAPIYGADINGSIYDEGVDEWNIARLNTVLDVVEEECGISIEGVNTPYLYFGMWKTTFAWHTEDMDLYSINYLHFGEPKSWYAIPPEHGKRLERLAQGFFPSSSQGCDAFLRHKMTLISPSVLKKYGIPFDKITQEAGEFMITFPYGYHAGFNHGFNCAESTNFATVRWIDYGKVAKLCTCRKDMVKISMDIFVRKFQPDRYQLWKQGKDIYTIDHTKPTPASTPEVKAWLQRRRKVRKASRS

What is called IC50 is the concentration that gives 50% inhibition. Lower therefore signals inhibition by little substance.

Jarid1A, sequence (P29375 1-1090): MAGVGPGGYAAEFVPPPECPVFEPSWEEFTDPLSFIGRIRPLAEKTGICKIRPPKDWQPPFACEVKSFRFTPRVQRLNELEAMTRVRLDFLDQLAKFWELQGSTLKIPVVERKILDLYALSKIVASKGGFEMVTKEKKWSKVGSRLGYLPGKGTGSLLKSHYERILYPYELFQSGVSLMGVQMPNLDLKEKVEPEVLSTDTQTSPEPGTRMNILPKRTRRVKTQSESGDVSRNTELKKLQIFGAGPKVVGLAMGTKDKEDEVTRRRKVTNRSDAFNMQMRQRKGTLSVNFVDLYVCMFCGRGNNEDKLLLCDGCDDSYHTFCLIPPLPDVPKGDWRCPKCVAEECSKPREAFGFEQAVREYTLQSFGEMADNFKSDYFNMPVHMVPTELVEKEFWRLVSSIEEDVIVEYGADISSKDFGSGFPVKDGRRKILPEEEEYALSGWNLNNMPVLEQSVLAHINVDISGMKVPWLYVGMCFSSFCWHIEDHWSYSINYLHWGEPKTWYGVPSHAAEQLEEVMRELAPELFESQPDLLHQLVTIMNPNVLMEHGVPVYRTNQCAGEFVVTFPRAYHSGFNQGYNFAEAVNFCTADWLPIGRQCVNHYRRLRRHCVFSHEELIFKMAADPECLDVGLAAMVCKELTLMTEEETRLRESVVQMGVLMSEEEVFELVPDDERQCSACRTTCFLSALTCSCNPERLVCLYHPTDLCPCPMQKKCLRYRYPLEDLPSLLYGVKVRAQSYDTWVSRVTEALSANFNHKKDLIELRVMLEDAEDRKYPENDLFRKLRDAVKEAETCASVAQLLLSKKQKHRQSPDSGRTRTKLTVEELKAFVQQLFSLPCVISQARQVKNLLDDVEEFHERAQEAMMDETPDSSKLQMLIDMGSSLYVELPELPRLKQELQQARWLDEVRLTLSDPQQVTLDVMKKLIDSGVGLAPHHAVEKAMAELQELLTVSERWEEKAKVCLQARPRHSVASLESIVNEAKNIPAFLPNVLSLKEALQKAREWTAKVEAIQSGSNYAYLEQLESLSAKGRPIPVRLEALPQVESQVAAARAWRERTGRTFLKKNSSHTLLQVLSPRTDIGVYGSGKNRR
FBXL10, sequence (Q8NHM5 1-650): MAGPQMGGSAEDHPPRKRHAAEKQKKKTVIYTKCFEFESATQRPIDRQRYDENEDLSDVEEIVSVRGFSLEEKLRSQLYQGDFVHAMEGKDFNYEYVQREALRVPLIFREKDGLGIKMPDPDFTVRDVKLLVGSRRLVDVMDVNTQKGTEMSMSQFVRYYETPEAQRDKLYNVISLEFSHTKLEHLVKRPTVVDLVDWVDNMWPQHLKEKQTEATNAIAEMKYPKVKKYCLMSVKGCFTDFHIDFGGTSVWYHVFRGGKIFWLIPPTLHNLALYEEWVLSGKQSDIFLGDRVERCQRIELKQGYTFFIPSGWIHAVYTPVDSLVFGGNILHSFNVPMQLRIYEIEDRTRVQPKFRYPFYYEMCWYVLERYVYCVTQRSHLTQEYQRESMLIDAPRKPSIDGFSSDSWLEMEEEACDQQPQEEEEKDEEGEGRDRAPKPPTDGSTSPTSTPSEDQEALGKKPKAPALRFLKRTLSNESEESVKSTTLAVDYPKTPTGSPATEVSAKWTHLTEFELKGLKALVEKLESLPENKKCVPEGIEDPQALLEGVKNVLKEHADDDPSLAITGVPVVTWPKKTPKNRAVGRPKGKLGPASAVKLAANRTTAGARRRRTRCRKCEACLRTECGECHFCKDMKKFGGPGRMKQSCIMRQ

With `Cn1cnc(-c2cc(C(=O)O)ccn2)c1Br` [Example 2, 2-(5-bromo-1-methyl-1H-imidazol-4-yl)pyridine-4-carboxylic acid], the IC50 on FBXL10 is 0.1 to 1 µM; on Jarid1B it was at most 0.1 µM; at Jarid1A, at most 0.1 µM; on JMJD2C it was 0.1 to 1 µM.

For `Cc1ccc(-c2c(-c3cc(C(=O)O)ccn3)ncn2C)cc1` [Example 4, 2-[1-methyl-5-(4-methylphenyl)-1H-imidazol-4-yl]pyridine-4-carboxylic acid], the IC50 was 0.1 to 1 µM on FBXL10, at most 0.1 µM at Jarid1B, at most 0.1 µM against Jarid1A and 1 to 10 µM at JMJD2C.

Consider `CCc1ccc(-c2c(-c3cc(C(=O)O)ccn3)ncn2C)cc1` [Example 5, 2-[5-(4-ethylphenyl)-1-methyl-1H-imidazol-4-yl]pyridine-4-carboxylic acid], for which the IC50 against FBXL10 was 0.1 to 1 µM; against Jarid1B, at most 0.1 µM; against Jarid1A it was at most 0.1 µM; against JMJD2C it was 1 to 10 µM.

On to `Cn1cnc(-c2cc(C(=O)O)ccn2)c1-c1ccc(C(F)(F)F)cc1` [Example 6, 2-{1-methyl-5-[4-(trifluoromethyl)phenyl]-1H-imidazol-4-yl}pyridine-4-carboxylic acid], for which the IC50 was 0.1 to 1 µM on FBXL10, at most 0.1 µM against Jarid1B, at most 0.1 µM against Jarid1A and 1 to 10 µM on JMJD2C.

As for `Cn1cnc(-c2cc(C(=O)O)ccn2)c1-c1ccc(C(C)(C)C)cc1` [Example 9, 2-[5-(4-tert-butylphenyl)-1-methyl-1H-imidazol-4-yl]pyridine-4-carboxylic acid], the concentration for half-maximal inhibition (IC50) against Jarid1B fell in the range of 0.1 to 1 µM; against Jarid1A, 0.1 to 1 µM; on JMJD2C, 1 to 10 µM.

As for `CNC(=O)c1cccc(-c2c(-c3cc(C(=O)O)ccn3)ncn2C)c1` [Example 10, 2-{1-methyl-5-[3-(methylcarbamoyl)phenyl]-1H-imidazol-4-yl}pyridine-4-carboxylic acid], the values for the IC50 against Jarid1B, at Jarid1A and at JMJD2C were 0.1 to 1 µM, 0.1 to 1 µM and 1 to 10 µM, respectively.

`Cn1cnc(-c2cc(C(=O)O)ccn2)c1-c1cccc(CO)c1` [Example 11, 2-{5-[3-(hydroxymethyl)phenyl]-1-methyl-1H-imidazol-4-yl}pyridine-4-carboxylic acid]: the half-maximal inhibitory concentration (IC50) lay in the range of 0.1 to 1 µM against FBXL10, 0.1 to 1 µM at Jarid1B, 0.1 to 1 µM against Jarid1A and 1 to 10 µM at JMJD2C.

For `Cn1cnc(-c2cc(C(=O)O)ccn2)c1-c1ccc(OC(F)(F)F)cc1` [Example 13, 2-{1-methyl-5-[4-(trifluoromethoxy)phenyl]-1H-imidazol-4-yl}pyridine-4-carboxylic acid], the IC50 lay in the range of 0.1 to 1 µM on FBXL10, 0.1 to 1 µM on Jarid1B, 0.1 to 1 µM against Jarid1A and 1 to 10 µM against JMJD2C.

With `CCOc1ccc(-c2c(-c3cc(C(=O)O)ccn3)ncn2C)cc1` [Example 14, 2-[5-(4-ethoxyphenyl)-1-methyl-1H-imidazol-4-yl]pyridine-4-carboxylic acid], the IC50 against FBXL10 is 0.1 to 1 µM; against Jarid1B, 0.1 to 1 µM; against Jarid1A, 0.1 to 1 µM; against JMJD2C it was 1 to 10 µM.

For the compound `Cn1cnc(-c2cc(C(=O)O)ccn2)c1-c1ccc(C2(CO)CC2)cc1` [Example 17, 2-(5-{4-[1-(hydroxymethyl)cyclopropyl]phenyl}-1-methyl-1H-imidazol-4-yl)pyridine-4-carboxylic acid], the results for the IC50 at Jarid1B, against Jarid1A and on JMJD2C were at most 0.1 µM, at most 0.1 µM and 0.1 to 1 µM, respectively.

Consider `COCC1(c2ccc(-c3c(-c4cc(C(=O)O)ccn4)ncn3C)cc2)CC1` [Example 25, 2-(5-{4-[1-(methoxymethyl)cyclopropyl]phenyl}-1-methyl-1H-imidazol-4-yl)pyridine-4-carboxylic acid], for which the values for the IC50 at Jarid1B, on Jarid1A and against JMJD2C were at most 0.1 µM, at most 0.1 µM and 1 to 10 µM, respectively.

`Cc1cc(Cl)ccc1-c1c(-c2cc(C(=O)O)ccn2)ncn1C` [Example 26, 2-[5-(4-chloro-2-methylphenyl)-1-methyl-1H-imidazol-4-yl]pyridine-4-carboxylic acid]: the figures for the IC50 against Jarid1B, on Jarid1A and at JMJD2C were 0.1 to 1 µM, at most 0.1 µM and 1 to 10 µM, respectively.

For `Cn1cnc(-c2cc(C(=O)O)ccn2)c1-c1ccc(C2(C(F)(F)F)CC2)cc1` [Example 34, 2-(1-methyl-5-{4-[1-(trifluoromethyl)cyclopropyl]phenyl}-1H-imidazol-4-yl)pyridine-4-carboxylic acid], the figures for the IC50 at Jarid1B, against Jarid1A and against JMJD2C were at most 0.1 µM, at most 0.1 µM and 0.1 to 1 µM, respectively.

`CN(C)CCCn1cnc(-c2cc(C(=O)O)ccn2)c1` [Example 42, 2-{1-[3-(dimethylamino)propyl]-1H-imidazol-4-yl}pyridine-4-carboxylic acid]: the IC50 at Jarid1B, against Jarid1A and against JMJD2C was at most 0.1 µM in each case.

For `O=C(O)c1ccnc(-c2cn(CCN3CCOCC3)cn2)c1` [Example 45, 2-{1-[2-(morpholin-4-yl)ethyl]-1H-imidazol-4-yl}pyridine-4-carboxylic acid], the half-maximal inhibitory concentration (IC50) on Jarid1B was 0.1 to 1 µM; against Jarid1A it was 1 to 10 µM; at JMJD2C it was over 10 µM.

In the case of `CC(Cn1cnc(-c2cc(C(=O)O)ccn2)c1)N1CCCC1` (stereo not drawn) [Example 61, 2-{1-[2-(pyrrolidin-1-yl)propyl]-1H-imidazol-4-yl}pyridine-4-carboxylic acid], the IC50 against Jarid1B, at Jarid1A and on JMJD2C was at most 0.1 µM in each case.

For `O=C(O)c1ccnc(-c2cn(CCNCc3ccccc3C(F)(F)F)cn2)c1` [Example 75, 2-[1-[2-[[2-(trifluoromethyl)phenyl]methylamino]ethyl]imidazol-4-yl]pyridine-4-carboxylic acid], the IC50 against Jarid1B, against Jarid1A and at JMJD2C was at most 0.1 µM in each case.

As for `COc1ccc(CCn2cnc(-c3cc(C(=O)O)ccn3)c2)cc1` [Example 94, 2-[1-[2-(4-methoxyphenyl)ethyl]imidazol-4-yl]pyridine-4-carboxylic acid], the 50% inhibitory concentration (IC50) against Jarid1B, against Jarid1A and on JMJD2C was at most 0.1 µM in each case.

For `Clc1cccc(Cn2cnc(-c3cc(-c4nn[nH]n4)ccn3)c2)c1Cl` [Example 158, 2-[1-[(2,3-dichlorophenyl)methyl]imidazol-4-yl]-4-(2H-tetrazol-5-yl)pyridine], the figures for the IC50 at FBXL10 and at JMJD2C were at most 0.1 µM and 1 to 10 µM, respectively.

Regarding `Cn1cnc(-c2cc(-c3nn[nH]n3)ccn2)c1-c1ccc(F)c(OCC(F)(F)F)c1` [Example 159, 2-[5-[4-fluoro-3-(2,2,2-trifluoroethoxy)phenyl]-1-methylimidazol-4-yl]-4-(2H-tetrazol-5-yl)pyridine], the values for the half-inhibitory concentration (IC50) at FBXL10 and against JMJD2C were 0.1 to 1 µM and 1 to 10 µM, respectively.

For `Cn1cnc(-c2cc(-c3nn[nH]n3)ccn2)c1-c1ccc(F)c(OCc2ccccc2)c1` [Example 160, 2-[5-(4-fluoro-3-phenylmethoxyphenyl)-1-methylimidazol-4-yl]-4-(2H-tetrazol-5-yl)pyridine], the 50% inhibitory concentration (IC50) against FBXL10 is at most 0.1 µM; on JMJD2C it was 1 to 10 µM.

For the compound `Cn1cnc(-c2cc(-c3nn[nH]n3)ccn2)c1-c1ccc(F)c(O)c1` [Example 162, 2-fluoro-5-[3-methyl-5-[4-(2H-tetrazol-5-yl)pyridin-2-yl]imidazol-4-yl]phenol], the IC50 at FBXL10 is at most 0.1 µM; on JMJD2C it was 1 to 10 µM.

On to `Cn1cnc(-c2cc(-c3nn[nH]n3)ccn2)c1-c1ccc(F)c(C(=O)Nc2ccccc2)c1` [Example 163, 2-fluoro-5-[3-methyl-5-[4-(2H-tetrazol-5-yl)pyridin-2-yl]imidazol-4-yl]-N-phenylbenzamide], for which the IC50 on FBXL10 lay within 0.1 to 1 µM; against JMJD2C, 1 to 10 µM.

For `Cn1cnc(-c2cc(-c3nn[nH]n3)ccn2)c1-c1ccc(F)c2ccccc12` [Example 164, 2-[5-(4-fluoronaphthalen-1-yl)-1-methylimidazol-4-yl]-4-(2H-tetrazol-5-yl)pyridine], the IC50 is at most 0.1 µM against FBXL10 and 1 to 10 µM against JMJD2C.

Take `Cn1nnc(-c2ccnc(-c3cn(Cc4ccccc4Cl)cn3)c2)n1` [Example 165, 2-(1-(2-chlorobenzyl)-1H-imidazol-4-yl)-4-(2-methyl-2H-tetrazol-5-yl)pyridine]: the IC50 against FBXL10 and against JMJD2C was 1 to 10 µM throughout.

For `CC(C)(C)C(=O)OCn1nnc(-c2ccnc(-c3cn(Cc4ccccc4Cl)cn3)c2)n1` [Example 166, (5-(2-(1-(2-chlorobenzyl)-1H-imidazol-4-yl)pyridin-4-yl)-2H-tetrazol-2-yl)methyl pivalate], the IC50 at FBXL10 and on JMJD2C was 1 to 10 µM in each case.

`CC(=O)OCn1nnc(-c2ccnc(-c3cn(Cc4ccccc4Cl)cn3)c2)n1` [Example 167, (5-(2-(1-(2-chlorobenzyl)-1H-imidazol-4-yl)pyridin-4-yl)-2H-tetrazol-2-yl)methyl acetate]: the IC50 fell in the range of 0.1 to 1 µM on FBXL10 and 1 to 10 µM against JMJD2C.

With `Fc1ccc(-c2c(-c3cc(-c4nn[nH]n4)ccn3)ncn2Cc2cccc(Cl)c2)c(OCC2CC2)c1` [Example 169, 2-(1-(3-chlorobenzyl)-5-(2-(cyclopropylmethoxy)-4-fluorophenyl)-1H-imidazol-4-yl)-4-(2H-tetrazol-5-yl)pyridine], the IC50 was in the range of 0.1 to 1 µM against FBXL10 and 1 to 10 µM at JMJD2C.
